From patent publication US20220128542A1, “TREATMENT EFFICIENCY EVALUATION” (TX MEDIC AB, priority 2019, published 2022)
Marks after values point to notes of the source that are not given here.

Tested on: brain of rats subjected to severe traumatic brain injury (sTBI)
Experiment: HPLC of purine-pyrimidine metabolites (energy state, oxidative/nitrosative stress) in brain after sTBI (Example 1)
Type: in vivo, rat
Experimental: They were divided into three groups:
1) n=6 animals subjected to sTBI, with drug administration after 30 minutes and sacrifice at 2 days post-TBI (Acute phase 1)
2) n=6 animals subjected to sTBI, with drug administration after 30 minutes and sacrifice at 7 days post-TBI (Acute phase 2).
3) n=6 animals subjected to sTBI, with drug administration after 3 days and sacrifice at 7 days post-TBI (Chronic phase).
The drug treatment was a subcutaneous injection of 0.5 ml of LMW-DS (15 mg/kg) and administered according to the aforementioned schematic protocol.
After the wet weight (w.w.) determination, tissue preparation was affected as previously disclosed (Tavazzi et al., Neurosurgery. 2005; 56: 582-589; Vagnozzi et al., Neurosurgery. 2007; 61: 379-388; Tavazzi et al., Neurosurgery. 2007; 61: 390-395; Amorini et al., J Cell Mol Med. 2017; 21: 530-542.). Briefly, whole brain homogenization was performed with 7 ml of ice-cold, nitrogen-saturated, precipitating solution composed by CH3CN+10 mM KH2PO4, pH 7.40, (3:1; v:v), and using an Ultra-Turrax set at 24,000 rpm/min (Janke & Kunkel, Staufen, Germany). After centrifugation at 20,690×g, for 10 min at 4° C., the clear supernatants were saved, pellets were supplemented with 3 ml of the precipitating solution and homogenized again as described above. A second centrifugation was performed (20,690×g, for 10 min at 4° C.), pellets were saved, supernatants combined with those previously obtained, extracted by vigorous agitation with a double volume of HPLC-grade CHCl3 and centrifuged as above. The upper aqueous phases containing water-soluble low-molecular weight compounds were collected, subjected to chloroform washings for two more times (this procedure allowed the removal of all the organic solvent and of any lipid soluble compound from the buffered tissue extracts), adjusted in volumes with 10 mM KH2PO4, pH 7.40, to have ultimately aqueous 10% tissue homogenates and saved at −80° C. until assayed.
Aliquots of each deproteinized tissue samples were filtered through a 0.45 μm HV Millipore filter and loaded (200 μl) onto a Hypersil C-18, 250×4.6 mm, 5 μm particle size column, provided with its own guard column (Thermo Fisher Scientific, Rodano, Milan, Italy) and connected to an HPLC apparatus consisting of a Surveyor System (Thermo Fisher Scientific, Rodano, Milan, Italy) with a highly sensitive diode array detector (equipped with a 5 cm light path flow cell) and set up between 200 and 300 nm wavelength. Data acquisition and analysis were performed by a PC using the ChromQuest® software package provided by the HPLC manufacturer.
Metabolites belonging to the purine-pyrimidine profiles (listed below) and related to tissue energy state, mitochondrial function and relative to oxidative-nitrosative stresses were separated, in a single chromatographic run, according to slight modifications of existing ion-pairing HPLC methods (Lazzarino et al., Anal Biochem. 2003; 322: 51-59; Tavazzi et al., Clin Biochem. 2005; 38: 997-1008). Assignment and calculation of the compounds of interest in chromatographic runs of tissue extracts were carried out at the proper wavelengths (206, 234 and 260 nm) by comparing retention times, absorption spectra and areas of peaks with those of peaks of chromatographic runs of freshly-prepared ultra-pure standard mixtures with known concentrations. […]

[1] = Acute phase 1: 15 mg/kg s.c. 30 min post-sTBI, sacrifice day 2
[2] = Acute phase 2: 15 mg/kg s.c. 30 min post-sTBI, sacrifice day 7

sodium salt of dextran sulfate [LMW-DS]
MDA levels (15 mg/kg s.c. after sTBI): significant reduction
ascorbic acid and GSH levels (15 mg/kg s.c. after sTBI): significant improvement
levels of NAA and its substrates (15 mg/kg s.c. after sTBI): significant improvements
nitrate concentrations (15 mg/kg s.c., acute and chronic phases of sTBI): significantly decreased
ADO brain concentration [1]: 71.67 ± 15.87 nmol/g (w.w.)
ADP brain concentration [1]: 279.34 ± 29.59^b nmol/g (w.w.)
ADP-ribose brain concentration [1]: 137.87 ± 43.18^a nmol/g (w.w.)
AMP brain concentration [1]: 53.61 ± 17.91^a, c, j nmol/g (w.w.)
ATP brain concentration [1]: 1464.25 ± 99.09^a, h nmol/g (w.w.)
CDP brain concentration [1]: 25.53 ± 6.83^a, c nmol/g (w.w.)
CDP choline brain concentration [1]: 10.93 ± 3.22^b, h nmol/g (w.w.)
CTP brain concentration [1]: 18.98 ± 6.58^a, g nmol/g (w.w.)
CoA-SH brain concentration [1]: 21.61 ± 3.42^a, h nmol/g (w.w.)
GDP brain concentration [1]: 158.72 ± 24.57^a nmol/g (w.w.)
GDP glucose brain concentration [1]: 38.71 ± 6.86 nmol/g (w.w.)
GMP brain concentration [1]: 177.00 ± 32.39^a, g nmol/g (w.w.)
GSH brain concentration [1]: 2649.50 ± 397.31^a, d nmol/g (w.w.)
GSSG brain concentration [1]: 185.21 ± 48.10 nmol/g (w.w.)
GTP brain concentration [1]: 255.29 ± 45.21^a, g nmol/g (w.w.)
IMP brain concentration [1]: 67.71 ± 10.63^g, i nmol/g (w.w.)
MDA brain concentration [1]: 12.47 ± 2.09^a, c, g nmol/g (w.w.)
NAA brain concentration [1]: 6147.91 ± 989.12^a nmol/g (w.w.)
NADH brain concentration [1]: 15.49 ± 2.05^c, j nmol/g (w.w.)
NADPH brain concentration [1]: 6.22 ± 1.73 nmol/g (w.w.)
NADP^+ brain concentration [1]: 17.95 ± 3.28^a nmol/g (w.w.)
NAD^+ brain concentration [1]: 404.63 ± 51.10^a, c, i nmol/g (w.w.)
NO2 brain concentration [1]: 216.03 ± 41.74^a nmol/g (w.w.)
NO3 brain concentration [1]: 210.64 ± 91.95^d nmol/g (w.w.)
UDP brain concentration [1]: 61.83 ± 10.23^a, g nmol/g (w.w.)
UDP-Gal brain concentration [1]: 119.45 ± 12.50 nmol/g (w.w.)
UDP-GalNac brain concentration [1]: 19.17 ± 4.01^a nmol/g (w.w.)
UDP-Glc brain concentration [1]: 32.14 ± 4.59^g nmol/g (w.w.)
UDP-GlcNac brain concentration [1]: 95.85 ± 19.73^h, i nmol/g (w.w.)
UMP brain concentration [1]: 107.80 ± 21.62 nmol/g (w.w.)
UTP brain concentration [1]: 123.46 ± 15.42^d nmol/g (w.w.)
acetyl-CoA brain concentration [1]: 21.56 ± 6.22^a, g, i nmol/g (w.w.)
adenine brain concentration [1]: 44.82 ± 6.31^a, d, g nmol/g (w.w.)
ascorbic acid brain concentration [1]: 3733.10 ± 277.88^a, d nmol/g (w.w.)
creatinine brain concentration [1]: 24.55 ± 3.20^b, g, i nmol/g (w.w.)
cytidine brain concentration [1]: 15.40 ± 3.04 nmol/g (w.w.)
cytosine brain concentration [1]: 17.69 ± 2.50^b, d nmol/g (w.w.)
guanine brain concentration [1]: 4.80 ± 1.24^b nmol/g (w.w.)
guanosine brain concentration [1]: 20.71 ± 5.66 nmol/g (w.w.)
hypoxanthine brain concentration [1]: 14.47 ± 2.87^a nmol/g (w.w.)
inosine brain concentration [1]: 92.55 ± 31.20^c nmol/g (w.w.)
malonyl-CoA brain concentration [1]: 12.33 ± 1.82^b nmol/g (w.w.)
orotic acid brain concentration [1]: 8.80 ± 2.45^b, h, j nmol/g (w.w.)
thymidine brain concentration [1]: 0.69 ± 0.11 nmol/g (w.w.)
uracil brain concentration [1]: 14.56 ± 5.44 nmol/g (w.w.)
uric acid brain concentration [1]: 23.62 ± 3.77^a, d, h nmol/g (w.w.)
uridine brain concentration [1]: 76.35 ± 12.85^a, c nmol/g (w.w.)
xanthine brain concentration [1]: 9.46 ± 2.34^d nmol/g (w.w.)
β-pseudouridine brain concentration [1]: 6.65 ± 1.309^g, i nmol/g (w.w.)
ADO brain concentration [2]: 82.11 ± 16.51^a nmol/g (w.w.)
ADP brain concentration [2]: 264.07 ± 28.29^b, e, j nmol/g (w.w.)
ADP-ribose brain concentration [2]: 141.96 ± 23.56^a, e, j nmol/g (w.w.)
AMP brain concentration [2]: 57.70 ± 23.01^a, e, j nmol/g (w.w.)
ATP brain concentration [2]: 1632.23 ± 90.07^a, e, j nmol/g (w.w.)
CDP brain concentration [2]: 24.29 ± 6.76^a nmol/g (w.w.)
CDP choline brain concentration [2]: 6.91 ± 1.86 nmol/g (w.w.)
CMP brain concentration [2]: 15.68 ± 2.12^f, j nmol/g (w.w.)
CTP brain concentration [2]: 32.63 ± 3.99^e, i nmol/g (w.w.)
CoA-SH brain concentration [2]: 30.57 ± 6.02^f nmol/g (w.w.)
GDP brain concentration [2]: 126.70 ± 31.35^a, j nmol/g (w.w.)
GDP glucose brain concentration [2]: 49.25 ± 10.33^a nmol/g (w.w.)
GMP brain concentration [2]: 91.47 ± 12.35^e, i nmol/g (w.w.)
GSH brain concentration [2]: 2821.50 ± 242.82^a, e nmol/g (w.w.)
GSSG brain concentration [2]: 219.54 ± 53.36 nmol/g (w.w.)
GTP brain concentration [2]: 336.65 ± 35.18^a, e, j nmol/g (w.w.)
IMP brain concentration [2]: 102.63 ± 22.09^a nmol/g (w.w.)
MDA brain concentration [2]: 4.82 ± 1.73^a, e, i nmol/g (w.w.)
NAA brain concentration [2]: 7262.84 ± 749.73^a, e nmol/g (w.w.)
NADH brain concentration [2]: 13.12 ± 4.19^e nmol/g (w.w.)
NADPH brain concentration [2]: 7.05 ± 2.21 nmol/g (w.w.)
NADP^+ brain concentration [2]: 21.27 ± 4.19^b, e, j nmol/g (w.w.)
NAD^+ brain concentration [2]: 401.18 ± 34.53^a, e, i nmol/g (w.w.)
